Assay results taken from US6420371B1, “Quinazolinone-containing pharmaceutical compositions for prevention of neovascularization and for treating malignancies” (Madasit Medical Research Services & Development Co., Ltd., priority 1997, dated 2002).
Values after ≈ are worked out from the molar mass of the structure shown. Values joined by “and” are separate entries in the source; they are usually repeats but may differ in a detail not shown here. Equal entries are not always repeated.

Columns and labels:
[1] = system: bovine corneal endothelial cells; assay: cells; assay type: cell-based
Description: Cultures of bovine corneal endothelial cells were established from steer eyes and maintained as previously described [D. Gospodarowicz, et al., Exp. Eye Res., No. 25, pp. 75-89 (1997)]. Cells were cultured at 37° C. in 10% CO2 humidified incubators and the experiments were performed with early (3-8) cell passsages.
For preparation of the sulfate-labelled ECM (extra-cellular matrix), corneal endothelial cells were seeded into 4-well plates at a confluent density forming, within 4-6 h, a contact inhibited cell monolayer composed of closely apposed, and growth arrested cells. Under these conditions, the cells remained viable and retained their normal monolayer configuration and morphological appearance up to a concentration of 2 μg/ml halofuginone. Na2[^35S]O4 (540-590 mCi/mmol) was added (40 μCi/ml) one and five days after seeding and the cultures were incubated without medium change. At various intervals after seeding, the subendothelial ECM was exposed by dissolving (5 min., room temperature) the cell layer with PBS containing 0.5% Triton X-100 and 20 mM NH4OH, followed by four washes in PBS [I Viodavsky, et al., Cancer Res., Vol. 43, pp. 2704-2711 (1983), I. Vlodavsky, et al., Proc. Natl. Acad. Sci. USA, Vol. 84 pp. 2292-2296 (1987)]. To determine the total amount of sulfate labeled material, the BCM was digested with trypsin (25 μg/ml, 24 h, 37° C.) and the solubilized material counted in a β-counter.

[2] = system: bovine aortic endothelial cells; assay: 3H-thymidine incorporation into vascular endothelial cells; assay type: cell-based; settings: 48 hours
Description: Cultures of vascular endothelial cells were established from bovine aorta as previously described [D. Gospodarowicz, et al., Proc. Natl. Acad. Sci. U.S.A., Vol. 73, p. 4120 (1979)]. Bovine aortic endothelial cells were plated (4×10^4 cells/16 mm well) in DMEM (1 g glucose/liter) supplemental with 10% calf serum, 50 U/ml penicillin, and 50 μ/ml streptomycin at 37° C. in 10% CO2 humidified incubators. Four days after plating, the subconfluent cells were exposed to increasing concentrations of Halofuginone (100-500 ng/ml), in the absence of presence of 1 ng/ml bFGF. ^3H-thymidine (1 μCi/well) was then added for an additional 48 hours, and DNA synthesis was assayed by measuring the radioactivity incorporated into trichloroacetic acid insoluble material [M. Benezra, et al., Cancer Res., Vol 52, pp. 5656-5662 (1992); I. Vlodavsky, et al., Proc. Natl. Acad. Sci. U.S.A. Vol. 84, pp. 2292-2296 (1987)].

tumor cells = assay: Tunnel staining of histological tumor sections (necrosis and apoptosis); assay type: in vivo; settings: tumors from halofuginone treated mice, FIG. 1F panel B
Excerpt: Histological sections of the tumors were subjected to tunnel staining [Gavrieli, Y. et al., J. Cell Biol., Vol. 119, pp. 493-501, 1992], in order to evaluate the extent of tumor cell necrosis and apoptosis. […] The high degree of cell apoptosis and necrosis in halofuginone treated tumors is in all likelihood due to an inhibition of angiogenesis and […] deposition, both critical factors supporting growth and survival of the tumor cells.

T50 bladder carcinoma = assay: Inhibition of in vivo growth of T50 bladder carcinoma in C3H mice; settings: for tumor volume (group mean): Halofuginone containing diet 5 mg/kg; for T50 Tumor Size: individual mice, diet containing 5 mg/kg Halofuginone, day 17
Description: C3H mice were divided into two groups (6 mice each). The experimental group received a diet containing 5 mg/kg of Halofuginone 3 days prior to the injection of T50 bladder carcinoma cells and during 2 weeks after. […] The right side received 0.4 * 10^5 cells, and the left side received 2 * 10^5 cells. The tumor size was estimated by measurement of tumor length in two directions, using the formula V=LW^2/2, where V is volume, L is length and W is width. At the end of the experiment at day 17, the mice were weighed, the tumors were excised and a sample of the tumor tissue was fixed and processed for histological examination.

3T3 fibroblast cells = settings: in vitro; cited from earlier work
EHS sarcoma = assay: Inhibition of in vivo growth of EHS tumor in C57BL/6 mice
Description: Animals bearing Engelbreth-Holm-Swarm (EHS) tumors were sacrificed and the tumor tissue was excised and minced under aseptic conditions. The EHS tumor is characterized by a large amount of basement membrane components. A suspension of the tumor tissue in 0.2 ml of PBS was injected subcutaneously in the dorsal posterior region of C57BL/6 male mice. The mice were divided into two groups of 10 mice each. The animals of the experimental group were fed with a diet containing 5 mg/kg Halofuginone for 3 days prior to tumor injection and during 3 weeks after. The tumor size was estimated by measurement of tumor length in two directions, using the formula V=LW^2/2. On the final day of the experiment, i.e., 20 days after tumor injector, the mice were weighed the tumors were exceed and a sample of the tumor tissue was fixed and processed for histological examination.

Q: What does the source list for `O=C(CC1NCCCC1O)Cn1cnc2cc(Br)c(Cl)cc2c1=O` (centres unmarked) [Halofuginone]?
A: inhibition of sulfate incorporation into ECM ([1]; 1 μg/ml Halofuginone): almost complete inhibition; IC50 ([1]; Bos taurus, Endothelial cell, read-out: concentration giving 50% inhibition of sulfate incorporation into ECM): 0.2 µg/mL (≈ 0.482 µM); concentration up to which cells remained viable with normal monolayer configuration and morphology ([1]; bovine): ≤ 2 μg/ml; IC50 ([2]; Bos taurus, Endothelial cell, absence of bFGF (FIG. 2A), read-out: concentration giving 50% inhibition of 3H-thymidine incorporation): 0.1 µg/mL (≈ 0.241 µM); concentration giving 50% inhibition of 3H-thymidine incorporation ([2]; presence of 1 ng/ml bFGF (FIG. 2B)): 100 ng/mL; tunnel staining of tumor sections (cell apoptosis and necrosis) (tumor cells): majority of cells in tumor sections derived from halofuginone treated mice exhibited an intense staining; reduction of tumor size compared to control mice (T50 bladder carcinoma; C3H mice, diet 5 mg/kg Halofuginone): 70-80%; overall weight of mice (T50 bladder carcinoma; Halofuginone treated C3H mice, lower due to lower tumor burden): 24 ± 3.1 g; tumor volume (group mean) (T50 bladder carcinoma; high tumor cell dose): 1.0±0.92 cm^3; T50 Tumor Size (T50 bladder carcinoma; 0.4 * 10^5 cells s.c.): 0.730 cm^3 and 0.510 cm^3 and 0.036 cm^3 and 0.064 cm^3 and 0.150 cm^3; T50 Tumor Size (T50 bladder carcinoma; 2 * 10^5 cells s.c.): 2.0 cm^3 and 1.1 cm^3 (2×) and 0.7 cm^3 and 0.1 cm^3; tumor volume (group mean) (T50 bladder carcinoma; lower tumor cell dose): 0.29±0.28 cm^3; proliferation of 3T3 fibroblast cells (3T3 fibroblast cells): inhibit the proliferation; tumor volume (group mean) (EHS sarcoma; C57BL/6 mice fed Halofuginone 5 mg/kg diet): 1.72±1.85 cm^3; reduction of tumor size compared to control mice (EHS sarcoma; C57BL/6 mice, diet 5 mg/kg Halofuginone): about 75%; weight of mice (EHS sarcoma; Halofuginone-fed C57BL/6 mice, nearly normal weight): 19.7 ± 0.47 g; EHS Tumor Size (EHS sarcoma; individual mice, diet 5 mg/kg Halofuginone, 20 days after tumor injection): 0 cm^3 (2×) and 2.2 cm^3 and 0.04 cm^3 and 6.5 cm^3 and 3.0 cm^3 and 1.3 cm^3 (2×) and 1.2 cm^3 and 1.7 cm^3
